What all share (type): organism-based
Series [1] relates to Gossypium hirsutum. Briefly: Phytotoxicity against Gossypium hirsutum assessed as appearance of lesions at 10 ug applied to adaxial surface of leaf for 12 hrs measured after 16 hrs. The conditions noted are these: in vivo, topical_or_ocular.
Series [2] has as its system Gossypium hirsutum. Briefly: Phytotoxicity against Gossypium hirsutum assessed as appearance of lesions at 0.5 ug applied to adaxial surface of leaf for 12 hrs measured after 4 days. The conditions noted are these: in vivo, topical_or_ocular.
The nature of series [3]: Phytotoxicity against Cucumis sativus protoplast after 3 hrs by fluorescein diacetate staining. The conditions noted are these: Cucumis sativus protoplasts, read-out: LD50.

Values after ≈ are worked out from the molar mass of the structure shown.

As for `CC1CCC/C=C/C(=O)c2c(O)cc(O)cc2CC(=O)O1` (centres undefined), the Activity entry in the series with Gossypium hirsutum [1] and in the series with Gossypium hirsutum [2] was “Toxic” in each case. In addition, the CC50 at 3 h in series [3] is 15 µg/mL (≈ 51.7 µM).
In the case of `CC1CCCCCC(=O)c2c(O)cc(O)cc2CC(=O)O1` (centres undefined) [CURVULARIN], in series [3], the CC50 at 3 h stood at 21 µg/mL (≈ 71.8 µM).

The record behind these values is ChEMBL document CHEMBL1151643, “The Identification of a Major Phytotoxic Component from Alternaria macrospora as -Dehydrocurvularin” (J Nat Prod, 1985).
